Test results published in ChEMBL document CHEMBL1201862, “PubChem BioAssay data set” (2004).
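Following 48 hours of exposure in 96-well plates, responses at five concentrations were used to interpolate endpoints linearly. At the GI50, growth is halved.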 Activity calls are given as the source filed them. Cut-off read from the data, not from the text of the source: active = GI50 up to about 1.1 µM and inactive = higher.

How the values were obtained:
Test in all cases: NCI tumour cell line growth inhibition, 48 h
MDA-N = tested on: MDA-N
CAKI-1 = tested on: CAKI-1
SK-OV-3 = tested on: SK-OV-3
OVCAR-8 = tested on: OVCAR-8
DU-145 = tested on: DU-145
IGROV-1 = tested on: IGROV-1
M14 = tested on: M14
A549 = tested on: A549
SK-MEL-5 = tested on: SK-MEL-5
SF-295 = tested on: SF-295
NCI-H226 = tested on: NCI-H226
MDA-MB-231 = tested on: MDA-MB-231
Hs-578T = tested on: Hs-578T
HT-29 = tested on: HT-29
LOX IMVI = tested on: LOX IMVI
RPMI-8226 = tested on: RPMI-8226
KM12 = tested on: KM12
UO-31 = tested on: UO-31
HOP-62 = tested on: HOP-62
SR = tested on: SR

Measured: GI50

CC(=O)O[C@@H]1[C@H]2O[C@H]2[C@H]2O[C@@]2(COC(=O)c2ccccc2)[C@H]1OC(C)=O
inactive: MDA-N > 100 µM | CAKI-1 99.1 µM | SK-OV-3 > 100 µM | OVCAR-8 71.9 µM | DU-145 73.5 µM | IGROV-1 35.8 µM | M14 > 100 µM | A549 > 100 µM | SK-MEL-5 > 100 µM | SF-295 > 100 µM | NCI-H226 > 100 µM | MDA-MB-231 > 100 µM | Hs-578T > 100 µM | HT-29 > 100 µM | LOX IMVI > 100 µM | RPMI-8226 > 100 µM | KM12 > 100 µM | UO-31 > 100 µM

C=C(C)C1CC(=O)C(C)=C(O)C1 (stereo not drawn)
inactive: MDA-N > 100 µM | CAKI-1 > 100 µM | SK-OV-3 > 100 µM | OVCAR-8 > 100 µM | HOP-62 > 100 µM | DU-145 > 100 µM | IGROV-1 > 100 µM | M14 > 100 µM | SR > 100 µM | A549 > 100 µM | SK-MEL-5 > 100 µM | SF-295 > 100 µM | NCI-H226 > 100 µM | MDA-MB-231 > 100 µM | Hs-578T > 100 µM | HT-29 > 100 µM | LOX IMVI > 100 µM | KM12 > 100 µM | UO-31 > 100 µM

Cc1ccc(C)c(COCCOCn2ccc(N)nc2=O)c1
inactive: MDA-N > 100 µM | CAKI-1 > 100 µM | SK-OV-3 > 100 µM | OVCAR-8 > 100 µM | HOP-62 > 100 µM | DU-145 > 100 µM | IGROV-1 > 100 µM | M14 > 100 µM | SR > 100 µM | A549 > 100 µM | SF-295 > 100 µM | NCI-H226 > 100 µM | MDA-MB-231 > 100 µM | Hs-578T > 100 µM | LOX IMVI > 100 µM | KM12 > 100 µM | UO-31 > 100 µM

CCC(c1ccc(OC)cc1)C1NC(=S)NC1=O (stereo not drawn)
inactive: MDA-N > 50 µM | CAKI-1 > 50 µM | SK-OV-3 > 50 µM | OVCAR-8 > 50 µM | HOP-62 > 50 µM | DU-145 > 50 µM | IGROV-1 > 50 µM | M14 > 50 µM | A549 > 50 µM | SK-MEL-5 > 50 µM | SF-295 > 50 µM | NCI-H226 > 50 µM | MDA-MB-231 > 50 µM | Hs-578T > 50 µM | HT-29 > 50 µM | LOX IMVI > 50 µM | RPMI-8226 > 50 µM | KM12 > 50 µM | UO-31 > 50 µM

O=C1C(Cl)=C(N2C(=O)CCC2=O)C(=O)c2ccccc21
inactive: MDA-N 19.4 µM | CAKI-1 19.1 µM | SK-OV-3 > 100 µM | OVCAR-8 37.1 µM | HOP-62 > 100 µM | DU-145 32.7 µM | IGROV-1 44.4 µM | M14 45.7 µM | SR 32 µM | A549 31.8 µM | SK-MEL-5 19.8 µM | SF-295 > 100 µM | NCI-H226 > 100 µM | MDA-MB-231 27.5 µM | Hs-578T > 100 µM | HT-29 29 µM | LOX IMVI 27.3 µM | KM12 41.8 µM | UO-31 15 µM

CC[C@H]1CN(C)[C@H]2Cc3c([nH]c4ccccc34)C(=O)C[C@H]1C2C(=O)OC (stereo partly drawn)
inactive: MDA-N > 100 µM | SK-OV-3 > 100 µM | OVCAR-8 > 100 µM | HOP-62 > 100 µM | DU-145 > 100 µM | IGROV-1 > 100 µM | M14 > 100 µM | SR > 100 µM | A549 > 100 µM | SK-MEL-5 > 100 µM | SF-295 > 100 µM | NCI-H226 > 100 µM | MDA-MB-231 > 100 µM | Hs-578T > 100 µM | HT-29 > 100 µM | LOX IMVI > 100 µM | RPMI-8226 57.8 µM | KM12 > 100 µM | UO-31 > 100 µM

CC(C1CCCC1=O)C1CCCC1=O (stereo not drawn)
inactive: MDA-N > 100 µM | CAKI-1 > 100 µM | SK-OV-3 > 100 µM | OVCAR-8 > 100 µM | HOP-62 > 100 µM | DU-145 > 100 µM | IGROV-1 > 100 µM | M14 > 100 µM | SR > 100 µM | A549 > 100 µM | SK-MEL-5 > 100 µM | SF-295 > 100 µM | NCI-H226 > 100 µM | MDA-MB-231 > 100 µM | Hs-578T 92 µM | HT-29 > 100 µM | LOX IMVI > 100 µM | KM12 > 100 µM | UO-31 > 100 µM

O=C(c1cccs1)N(C(=O)N1CCC(c2ccccc2)CC1)c1ccccc1
inactive: MDA-N 43.8 µM | CAKI-1 > 100 µM | SK-OV-3 88.3 µM | OVCAR-8 39.4 µM | HOP-62 36 µM | DU-145 > 100 µM | IGROV-1 14.7 µM | M14 40.6 µM | SK-MEL-5 16.8 µM | SF-295 42.7 µM | NCI-H226 34 µM | MDA-MB-231 > 100 µM | Hs-578T 27.5 µM | HT-29 25.4 µM | LOX IMVI 41.5 µM | RPMI-8226 12.6 µM | KM12 14.4 µM | UO-31 18 µM

O=C(Sc1c(-c2ccccc2)c(=O)n(-c2ccccc2)c(=S)n1-c1ccccc1)c1ccc(Cl)cc1
inactive: MDA-N > 100 µM | CAKI-1 > 100 µM | SK-OV-3 > 100 µM | OVCAR-8 > 100 µM | HOP-62 > 100 µM | DU-145 > 100 µM | IGROV-1 63 µM | M14 > 100 µM | SR > 100 µM | A549 > 100 µM | SF-295 > 100 µM | NCI-H226 > 100 µM | MDA-MB-231 55.8 µM | Hs-578T > 100 µM | HT-29 > 100 µM | LOX IMVI > 100 µM | KM12 > 100 µM

CC(C)Oc1c(-c2ccc(F)cc2)c(O)c2c3c1oc(=O)n3C=CC2C (stereo not drawn)
inactive: MDA-N 12.4 µM | CAKI-1 14.2 µM | SK-OV-3 24 µM | OVCAR-8 15.8 µM | HOP-62 14.8 µM | DU-145 13.1 µM | IGROV-1 15.3 µM | M14 15.1 µM | A549 13 µM | SK-MEL-5 10.8 µM | SF-295 15.2 µM | NCI-H226 13.9 µM | MDA-MB-231 14.4 µM | Hs-578T 20.2 µM | HT-29 16.6 µM | LOX IMVI 14.5 µM | RPMI-8226 6.27 µM | KM12 13.2 µM | UO-31 12.2 µM

Cc1oc2c(c1C)S(=O)(=O)C(C#N)=C(N(C)C)N2
inactive: MDA-N > 100 µM | CAKI-1 > 100 µM | SK-OV-3 > 100 µM | OVCAR-8 > 100 µM | HOP-62 > 100 µM | DU-145 > 100 µM | IGROV-1 > 100 µM | M14 > 100 µM | A549 > 100 µM | SK-MEL-5 > 100 µM | SF-295 > 100 µM | NCI-H226 > 100 µM | MDA-MB-231 > 100 µM | Hs-578T > 100 µM | HT-29 > 100 µM | LOX IMVI > 100 µM | RPMI-8226 > 100 µM | KM12 > 100 µM | UO-31 > 100 µM
